ChEMBL document CHEMBL1127379, “Three-dimensional molecular shape analysis-quantitative structure-activity relationship of a series of cholecystokinin-A receptor antagonists” (J Med Chem, 1994)

Molecular target: T1, Cholecystokinin receptor type A (Rattus norvegicus, UniProt P30551)
T1 sequence (P30551 whole entry): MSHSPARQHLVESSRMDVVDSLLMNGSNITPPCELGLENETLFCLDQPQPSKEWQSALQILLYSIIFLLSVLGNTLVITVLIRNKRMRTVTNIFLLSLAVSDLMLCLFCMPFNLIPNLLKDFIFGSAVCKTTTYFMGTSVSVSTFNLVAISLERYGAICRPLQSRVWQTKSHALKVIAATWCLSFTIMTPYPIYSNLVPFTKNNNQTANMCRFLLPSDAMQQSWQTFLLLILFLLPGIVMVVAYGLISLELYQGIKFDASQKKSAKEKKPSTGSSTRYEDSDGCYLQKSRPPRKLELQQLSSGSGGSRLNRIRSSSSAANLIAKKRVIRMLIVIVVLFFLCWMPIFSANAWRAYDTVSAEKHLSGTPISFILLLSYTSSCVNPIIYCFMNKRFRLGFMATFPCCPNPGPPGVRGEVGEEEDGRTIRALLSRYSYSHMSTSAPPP
Experiment: Binding affinity against cholecystokinin type A receptor of rat pancreas

| SMILES | IC50 |
| --- | --- |
| CN1C(=O)[C@@H](NC(=O)c2ccc(Cl)cc2)N=C(c2ccccc2F)c2ccccc21 | 2.88 nM |
| CN1C(=O)[C@@H](NC(=O)c2ccc(Br)cc2)N=C(c2ccccc2)c2ccccc21 | 2.51 nM |
| O=C(NC1N=C(c2ccccc2)c2ccccc2NC1=O)c1cc2ccccc2[nH]1 (stereo not drawn) | 4.57 nM |
| O=C(NC1N=C(c2ccccc2F)c2ccccc2NC1=O)c1cc2cc(Cl)ccc2[nH]1 (stereo not drawn) | 100 nM |
| O=C(NC1N=C(c2ccccc2)c2ccccc2NC1=O)c1ccc(O)cc1 (stereo not drawn) | 1780 nM |
| CN1C(=O)C(NC(=O)c2ccc(C#N)cc2)N=C(c2ccccc2F)c2ccccc21 (stereo not drawn) | 42.7 nM |
| CC1C(C(=O)NC2N=C(c3ccccc3F)c3ccccc3NC2=O)=Cc2ccccc21 (stereo not drawn) | 21.9 nM |
| O=C(CNc1ccccc1)NC1N=C(c2ccccc2F)c2ccccc2NC1=O (stereo not drawn) | 89.1 nM |
| CN1C(=O)C(NC(=O)c2ccccc2I)N=C(c2ccccc2F)c2ccccc21 (stereo not drawn) | 794 nM |
| CN1C(=O)C(NC(=O)c2ccc(Br)cc2)N=C(c2ccccc2F)c2ccccc21 (stereo not drawn) | 0.794 nM |
| CN1C(=O)C(NC(=O)c2ccc(I)cc2)N=C(c2ccccc2F)c2ccccc21 (stereo not drawn) | 0.794 nM |
| CN1C(=O)C(NC(=O)c2ccc(C(F)(F)F)cc2)N=C(c2ccccc2)c2ccccc21 (stereo not drawn) | 1.29 nM |
| CN1C(=O)C(NC(=O)c2cccc(Br)c2)N=C(c2ccccc2F)c2ccccc21 (stereo not drawn) | 3.47 nM |
